# Assay: Human HepG2 cell viability assay in 384 well format
# Format: toxicity, cell-based
# Design: dose 125 nL, time 70.5 hour; concentration not given beside the values
# Conditions: HepG2 cells, read-out: Inhibition
row,SMILES,cytotoxicity at 70.5 h [%]
1,Cc1nn(C)c(C)c1C1CCCN1CCCC#N (stereo not given),-4.71
2,CN1CCCC(CNS(=O)(=O)N2CCc3ccccc3C2)C1 (stereo not given),-10.7
3,CCCc1nnc(N2CCN(c3ccccc3OCC)CC2)o1,-4.12
4,O=C(c1ccc(O)c(Cl)c1)N(Cc1ccncc1)C1CC1,-2.89
5,CCOc1cc(/C=C/c2ncc(C(=O)O)s2)cc(Br)c1O,-11.1
6,COCCN(CCOC)C(=O)c1ccn(-c2ccccc2Cl)n1,17.5
7,Cc1c(Cl)cc(C(=O)NCCc2ncnn2C)cc1Cl,-9.97
8,NCCn1cc(C(=O)NCc2ccccc2-n2cccn2)nn1,-4.33
9,CCn1nc(CNC(=O)C2CCCN(C(=O)COC)C2)c2ccccc21 (stereo not given),-5.41
10,COCc1nc(N(C)C)ncc1C(=O)NC(C)C,12.7
11,CC(C)COC(C)C(=O)NCc1ccc(F)cc1 (stereo not given),-19.1
12,CCc1nc(C2CCCN2C(=O)c2cc3c(s2)CCC3)no1 (stereo not given),-2.7
13,COC1CCN(CCNC(=O)NCC(C)c2cccc(C)c2)CC1 (stereo not given),9.93
14,Cc1noc(-c2ccc(N(C)Cc3ccncc3C)nc2)n1,-5.41
15,O=C(NCCc1cccnc1)c1ccc2nccn2c1,-16.8
16,CCc1nc(C)sc1CNC1CCN(Cc2ccccc2)C1 (stereo not given),8.22
17,COc1ccc(OC)c(-c2cc(C(=O)NCC3(CO)CC3)n(C)n2)c1,-5.05
18,Cc1nonc1C1CCCN1Cc1ccc(C(=O)Nc2nccs2)cc1 (stereo not given),9.65
19,CC(=O)N1CCCC1c1nc(N(C)C)ncc1-c1ccccc1 (stereo not given),23.2
20,CC(C)CNC(=O)CCN1C(=O)CCc2cc(F)ccc21,-4.13
21,CCOc1ncccc1CNc1nnc(C)c(C)c1C#N,-0.879
22,Cc1ccccc1CN(Cc1ccncc1)CC(C)C,-4.55
23,CN1CCC(n2nc(Cc3cccc(Cl)c3)nc2Cn2ccnc2)CC1,-8.49

row,SMILES,cytotoxicity at 70.5 h [%]
1,O=C(c1cscn1)N1CCC2(CCN(Cc3nccs3)CC2)CC1,-14.7
2,N#Cc1ccccc1CN1CCC2(CC1)CC(c1ccccc1)C(=O)N2 (stereo not given),14
3,Cn1cnnc1CNC(=O)C1CCCN(Cc2cccc(F)c2)C1 (stereo not given),-13.7
4,COc1cccc(NC(=O)C2CC(=O)n3cnnc3S2)c1 (stereo not given),2.31
5,c1ccc(C2CCCN(Cc3cc4n(n3)CCNC4)CC2)cc1 (stereo not given),-6.51
6,COCCN(C)C1COC2(CCN(Cc3ccccn3)CC2)C1 (stereo not given),11.6
7,Cc1nccn1-c1cc(CNC(=O)CCNC(=O)C2CCCC2)ccn1,2.73
8,Cc1nc(CC(=O)N2CCCN(c3ccc(C#N)cc3)CC2)cs1,-8.68
9,CC(C)N1CCC(c2cc(C(F)(F)F)n3ccnc3n2)CC1,12.6
10,O=C(NCC(O)c1ccc(Cl)s1)c1ccoc1 (stereo not given),-8.52
11,O=C(Nc1ccc2c(c1)OC1(CCCC1)O2)c1ccc(=O)[nH]n1,-6.98
12,Cc1cnc(C(=O)N(CCN(C)C)Cc2ccc(Cl)cc2)cn1,-6.08
13,Cc1cc(CNC2(c3ccccc3)CCCCC2)on1,-0.993
14,COCCCNc1ncnc2c1CCN(C(=O)CC1C=CCC1)CC2 (stereo not given),-5.04
15,O=C(C1CCOCC1)N1C[C@H](OCc2cccnc2)[C@H]2COC[C@H]21,-5.49
16,CN1C[C@@H](NC(=O)c2ccccc2)C[C@H]1c1nc(-c2cnccn2)no1,10.6
17,CCC(C)C(=O)Nc1ccc(CCN2CCOCC2)cc1 (stereo not given),-18.2
18,NC(=O)C1CCN(CCCNC(=O)Nc2nccs2)CC1,-25.9
19,COc1c(C2CCCN2c2ncnc3ccsc23)c(C)nn1C (stereo not given),-3.57
20,COc1cc(C(C)NCc2c[nH]nc2C)ccc1OCCO (stereo not given),7.95
21,Cc1ccc(C(C)(C)CNC(=O)NC(C)Cn2cncn2)cc1 (stereo not given),-0.962
22,O=C(N[C@@H]1c2ccccc2C[C@@H]1O)C1CCN(Cc2ccco2)CC1,-0.979
23,COc1ccc2c(c1)C1(CCN(Cc3ccoc3)CC1)N(C)CC2,-5.64

row,SMILES,cytotoxicity at 70.5 h [%]
1,CC(C)CC(=O)N1CCN(Cc2cc(-c3ccncc3)nn2C)CC1,-3.33
2,COc1cc(C2(C(=O)NCCn3ccnc3)CCCC2)ccc1C,-6.48
3,O=C(c1cc(C2CC2)no1)N1C[C@H]2CC[C@@H]1CN(Cc1ccccn1)C2,-14.9
4,CCN(C)C(=O)C1(c2ccc(F)cc2F)CCC1,4.95
5,CN(Cc1nc2ccccc2o1)C1CCCN(c2cccnn2)C1 (stereo not given),4.68
6,Cc1cnn(CC2CCCCN2Cc2nc(N)c3ccccc3n2)c1 (stereo not given),-6.17
7,O=C1N(CC2CC2)C(c2c[nH]nc2-c2cccnc2)NC12CCCC2 (stereo not given),-12.7
8,CN(C)c1ccc(C(=O)N2CCCC2c2cnn(C)c2)nn1 (stereo not given),-11.7
9,Cc1nsc(C(=O)NCCc2ccc(Cl)cc2)n1,2.81
10,Cc1ccoc1-c1nnc(CN2CCn3c(nnc3C(C)C)C2)o1,-2.59
11,Cc1[nH]c(=O)c(C#N)cc1C(=O)N1C[C@@H](CN2CCCC2)C[C@H](CO)C1,-7.24
12,O=C(N1CCOCC1)N1CCC(Nc2ccncn2)CC1,-7.28
13,O=C(NCCn1ccc(-c2ccccn2)n1)c1ccncc1,11.3
14,O=C(c1cn(-c2ccc(F)cc2)nn1)N1CCCC(n2cccn2)C1 (stereo not given),-1.26
15,CN(CC(=O)Nc1ccon1)S(=O)(=O)c1cc(Cl)ccc1Cl,23.9
16,O=C(NCCCO)Nc1cnc2cc(Cl)ccc2c1O,-1.44
17,CCc1nnc(N[C@H](C)c2cccc(OC)c2)o1,-20.2
18,CN1CCC(Cc2cncc(-c3ccccc3C(=O)O)n2)C1 (stereo not given),-6.47
19,Cc1cc(C)n(CC(C)NCc2nc(-c3cccnc3)no2)n1 (stereo not given),-6.9
20,CN(C)C(=O)N1CCn2c(Cn3cccn3)cnc2C1,1.93
21,Cc1cc(NC(=O)NCCc2cccs2)n(C)n1,-1.92
22,Cc1cccc(-n2c(C)cc(=O)[nH]c2=O)c1C,-4.81
23,c1ccc(-c2noc(CCNC3CCOC4(CCOCC4)C3)n2)nc1 (stereo not given),-8.03

row,SMILES,cytotoxicity at 70.5 h [%]
1,NC(=O)CSCC(=O)NC1(c2cccc(Cl)c2)CC1,2.26
2,Cc1cccc(N(CCC(N)=O)CC(=O)NC2CCCC2)c1,18
3,CS(=O)(=O)N1CCCC(Cc2ccnc3ccncc23)CC1 (stereo not given),-0.73
4,CC(=O)N1CCC(n2nccc2-c2cnc(N(C)CCO)nc2)CC1,-6.31
5,CCN(CC)C(CNCc1ccc(OC)c(F)c1)c1ccco1 (stereo not given),54.9
6,Nc1nc2c(c(NCc3nccs3)n1)CCN(CC1CCCC1)CC2,-17.1
7,Cn1cc(CNCCNC(=O)Cc2ccccc2)c(-c2cccnc2)n1,-5.62
8,Clc1cccnc1OC1CCNCC1,22.1
9,CC(C)CCn1ccc(NC(=O)N2CCCC2C(C)(C)O)n1 (stereo not given),-6.63
10,CCN1CC2(CCC1=O)CCN(C(=O)c1cn3cccnc3n1)CC2,34.9
11,Cc1ccc2c(c1)CCC21CCN(C(=O)CN(C)C)CC1,-1.12
12,CCOc1cccc(C(=O)Nc2ccn(CC)n2)c1,-19.9
13,CO[C@@H]1CN(S(=O)(=O)c2cn(C)cn2)[C@@H]2CCCO[C@@H]21,-4.74
14,CCNC(=O)Nc1c(C)cnn1Cc1cc(F)ccc1F,-11.6
15,N#Cc1cccc(Oc2ccc(CN3CCCC3)cc2Cl)n1,18.1
16,COc1ccc(OC)c(NC(=O)N2CCCC2c2ccco2)c1 (stereo not given),-12.9
17,O=C(NCC(O)c1cccc(O)c1)C1CCN(C2CCCCC2)CC1 (stereo not given),-11.8
18,O=C(NCCCc1nc(=O)[nH][nH]1)c1ccc(Cl)cn1,-15.2
19,O=C(NCc1ccc(Cl)cc1)C1CCCN(c2ccc3nncn3n2)C1 (stereo not given),-9.54
20,Cc1nc(C)n(C2CCCN(C(=O)c3ccc4nccn4c3)C2)n1 (stereo not given),22.7
21,O=C(Nc1cnccn1)[C@H]1C[C@H]2OCC[C@H]2N(c2ncc(F)cn2)C1,-11.1
22,COCCN1CC(C(=O)Nc2ccc3c(c2)CCC(=O)N3C)CC1=O (stereo not given),0.117
23,CCN(CC)C(CNC(=O)c1c(C)noc1C(C)C)c1ccsc1 (stereo not given),0.627

row,SMILES,cytotoxicity at 70.5 h [%]
1,CCN(c1cc(C)cc(C)c1)S(=O)(=O)c1cc(C(=O)O)cs1,-7.47
2,Cc1ccc(NC(=O)C(C)N2CCCN(c3nccs3)CC2)c(C)c1 (stereo not given),-7.1
3,CCOc1ccnc(N2CCN(C(=O)c3c(CC)noc3C)CC2)n1,-7.39
4,Fc1ccc(Cn2ncc3c2CN(c2noc(C4CC4)n2)C3)cc1,-3.43
5,O=C(c1noc2c1CCCC2)N1CCCC(c2nccs2)C1 (stereo not given),-3.76
6,CCc1nc(C)cn1C(=O)Nc1ccccc1,2.98
7,CCn1cc(S(=O)(=O)NC(CO)Cc2ccccc2)cn1 (stereo not given),-7.27
8,O=C1NCCCC[C@@H]1Nc1ccc(-c2nc(C3CC3)no2)cn1,-2.61
9,CCN(Cc1cccs1)C(=O)c1ccc(=O)n(C)c1,1.17
10,O=C(COC1CCCC1)N1CC[C@H]2OCC[C@@]2(COCC2CC2)C1,-3.35
11,Cc1ccn(-c2ccnc(N3CCSCC3)n2)n1,-0.283
12,O=S(=O)(N1CCCC1)N1C[C@@H](c2cccc(F)c2)[C@@H]2NCCCCC[C@H]21,-6.83
13,COc1coc(CN2CCCC(CCc3ccccc3C)C2)cc1=O (stereo not given),2.52
14,COCCN1C[C@@H](C)[C@@]2(COCCN(C(=O)c3ccno3)C2)C1,-1.41
15,C[C@H](O)CNC(=O)c1cnc(-c2ccccc2)nc1O,-4.5
16,CCCN1CCN(C(=O)c2ccc(Cl)cn2)[C@H]2CS(=O)(=O)C[C@H]21,-10.4
17,Cc1nccc(-c2ccccc2)c1C(=O)N1CC[C@](C)(O)C(C)(C)C1,1.9
18,Cc1cnc(NC2CCc3c(ccc(=O)n3C)C2)nc1 (stereo not given),-4.77
19,CS(=O)(=O)CCN1CCN(c2ccc(Cl)cn2)CC1,1.44
20,COc1ccc(CN(C)c2nc3c(cnn3C)c(=O)[nH]2)c(OC)c1,18.3
21,CCN(Cc1ccc(C(C)=O)cc1)CC1CCOCC1,20.6
22,Cc1cc(CNC(=O)c2cc(COc3cncc(Cl)c3)on2)n[nH]1,16
23,CCOCC1CN(Cc2ccc(OC)cc2)Cc2nn(C)cc21 (stereo not given),25.5
